Measurements published in EP0076430A1, “Compositions having antimicrobial activity” (MEDEA RESEARCH S.r.l., priority 1981, dated 1983).
In brackets after ≈: the same amount, converted by molar mass.

How the values were obtained:
[1] = Toxicity, LD50 by intraperitoneal route; conditions: mouse, in vivo, ip, mice
Indole-positive Proteus [2] = test: Minimum inhibitory concentration (MIC), broth dilution; assay type: cell-based; conditions: 24 h
Method: (§1) Different bacterial species isolated from patients are employed.
(§2) Compounds AB5 and AB6 are dissolved in ethanol (ethyl alcohol 95°, C. Erba) and all the subsequent dilutions performed in distilled water. The chlorhexidine is diluted from the commercial product already dissolved in distilled water.
(§3) The broth dilution is employed to assess MIC values for all strains. Sterile microtiter plates with U bottom with 96 wells are employed. 0.1 Ml of liquid medium (tryptose Roche broth) are put in each well, the plates are kept at -20° and, before use, at room temperature.
(§4) The disinfectant agent is put in the wells of the row 2 at a concentration of 4000 mcg/ml (real 2000 mcg/ml) and then with a 100 µl micro- pipette dilutions are performed from row 2 to row 11.
(§5) The row 1 is the control of the medium and the row 12 is the control for the fertility of the medium itself.
(§6) After having performed the dilutions, 0.01 ml of a 24 hrs bacterial broth culture (previously diluted at 10^-4 for Gram-negative strains and 10-2 for Gram-positive ones) are placed in all wells, from the rows 2 to 12. After the inoculation, the plate is hermetical ly sealed with adhesive transparent band and an hole is done with a needle. The plates are kept at 35° for 24 hours and a macroscopic reading is carried out; in case of non uniform reading, taking place only for chlorhexidine, the cultures from the wells are plated on agar-heart-brain medium (Sclavo) through Dinatech apparatus (head "Inoculum 96") and the reading of the growth is carried out in the following 24 hours.

Staph. aureus [3] = test: as above; assay type: cell-based; conditions: Staphylococcus aureus, 24 h; strain 2672
Method: as §1, §2, §3, §4, §5, §6

Salmonella sp. [4] = test: as above; assay type: cell-based; conditions: 24 h, strain 2482
Method: as §1, §2, §3, §4, §5, §6

Bacillaceae = test: as above; assay type: cell-based; conditions: 24 h; strain 1722
Method: as §1, §2, §3, §4, §5, §6

Serratia marcescens [5] = test: as above; assay type: cell-based; conditions: 24 h, strain 1814
Method: as §1, §2, §3, §4, §5, §6

Enterobacter = test: as above; assay type: cell-based; conditions: 24 h, strain 2643
Method: as §1, §2, §3, §4, §5, §6

E.coli = test: as above; assay type: cell-based; conditions: Escherichia coli, 24 h
Method: as §1, §2, §3, §4, §5, §6

Pseudomonas aeruginosa [6] = test: as above; assay type: cell-based; conditions: 24 h
Method: as §1, §2, §3, §4, §5, §6

Staph. aureus [7] = test: Bactericide activity at different contact times; assay type: cell-based; set-up: key: + = growth; - = no growth; conditions: 100 p.p.m.
Method: as §1, §2
(§7) It is assessed through Dinatech apparatus with "Inoculum 96" head.
(§8) Chemical compounds at established concentra tions are placed in amount of 1 ml in the con tainers, the bacterial inoculum is then added in amount of 0.1 ml (24 hrs culture) and at pre-established times (3,5,10,30,60 and 120 mi nutes), through the head, the mixture compound/ disinfectant agent is transferred in solid medium (agar-heart-brain medium). After incubation at 35°C for 24 hours, the reading is carried out. The tests are repeated in presence of human serum at the concentration of 10%.

Salmonella sp. [8] = test: Bactericide activity at different contact times; assay type: cell-based; set-up: key: + = growth; - = no growth; conditions: 100 p.p.m.
Method: as §1, §2, §7, §8

B. subtilis = test: Bactericide activity at different contact times; assay type: cell-based; set-up: key: + = growth; - = no growth; conditions: 100 p.p.m.
Method: as §1, §2, §7, §8

E. coli = test: Bactericide activity at different contact times; assay type: cell-based; set-up: key to Bactericide action (growth / no growth): + = growth; - = no growth; conditions: 100 p.p.m.
Method: as §1, §2, §7, §8

Indole-positive Proteus [9] = test: Bactericide activity at different contact times; assay type: cell-based; set-up: key to Bactericide action (growth / no growth): + = growth; - = no growth; conditions: 100 p.p.m.
Method: as §1, §2, §7, §8

Serratia marcescens [10] = test: Bactericide activity at different contact times; assay type: cell-based; set-up: key to Bactericide action (growth / no growth): + = growth; - = no growth; conditions: 100 p.p.m.
Method: as §1, §2, §7, §8

Pseudomonas aeruginosa [11] = test: Bactericide activity at different contact times; assay type: cell-based; set-up: key to Bactericide action (growth / no growth) / Bactericide activity (growth / no growth), serum interference test: + = growth; - = no growth; conditions: 100 p.p.m.
Method: as §1, §2, §7, §8

SMILES: NC(=NCl)c1ccccc1 [AB5]
- LD50 [1]: 85 mg/kg
- MIC (Indole-positive Proteus [2]; strain 2075): 250 µg/mL (≈ 1620 µM)
- MIC (Indole-positive Proteus [2]; strain 2083): 125 µg/mL (≈ 809 µM)
- MIC (Indole-positive Proteus [2]; strain 2105): 500 µg/mL (≈ 3230 µM)
- MIC (Indole-positive Proteus [2]; strain 2410): 250 µg/mL (≈ 1620 µM)
- MIC (Indole-positive Proteus [2]; strain 2447): 500 µg/mL (≈ 3230 µM)
- MIC (Indole-positive Proteus [2]; strain 2674): 500 µg/mL (≈ 3230 µM)
- MIC (Staph. aureus [3]): 250 µg/mL (≈ 1620 µM)
- MIC (Salmonella sp. [4]): 250 µg/mL (≈ 1620 µM)
- MIC (Bacillaceae): 15.6 µg/mL (≈ 101 µM)
- MIC (Serratia marcescens [5]): 31.2 µg/mL (≈ 202 µM)
- MIC (Enterobacter): 250 µg/mL (≈ 1620 µM)
- MIC (E.coli; strain 2094): 250 µg/mL (≈ 1620 µM)
- MIC (E.coli; strain 2096): 250 µg/mL (≈ 1620 µM)
- MIC (E.coli; strain 2117): 250 µg/mL (≈ 1620 µM)
- MIC (E.coli; strain 2456): 500 µg/mL (≈ 3230 µM)
- MIC (E.coli; strain 2568): 500 µg/mL (≈ 3230 µM)
- MIC (Pseudomonas aeruginosa [6]; strain 2084): 250 µg/mL (≈ 1620 µM)
- MIC (Pseudomonas aeruginosa [6]; strain 2458): 500 µg/mL (≈ 3230 µM)
- MIC (Pseudomonas aeruginosa [6]; strain 2488): 250 µg/mL (≈ 1620 µM)
- MIC (Pseudomonas aeruginosa [6]; strain 2508): 500 µg/mL (≈ 3230 µM)
- MIC (Pseudomonas aeruginosa [6]; strain 2509): 250 µg/mL (≈ 1620 µM)
- MIC (Pseudomonas aeruginosa [6]; strain 2670): 500 µg/mL (≈ 3230 µM)
- Bactericide action (growth / no growth) (Staph. aureus [7]; contact time 3 min): +
- Bactericide action (growth / no growth) (Staph. aureus [7]; contact time 5 min): +
- Bactericide action (growth / no growth) (Staph. aureus [7]; contact time 10 min): +
- Bactericide action (growth / no growth) (Staph. aureus [7]; contact time 30 min): +
- Bactericide action (growth / no growth) (Staph. aureus [7]; contact time 60 min): -
- Bactericide action (growth / no growth) (Staph. aureus [7]; contact time 120 min): -
- Bactericide action (growth / no growth) (Salmonella sp. [8]; contact time 3 min): +
- Bactericide action (growth / no growth) (Salmonella sp. [8]; contact time 5 min): +
- Bactericide action (growth / no growth) (Salmonella sp. [8]; contact time 10 min): -
- Bactericide action (growth / no growth) (Salmonella sp. [8]; contact time 30 min): -
- Bactericide action (growth / no growth) (Salmonella sp. [8]; contact time 60 min): -
- Bactericide action (growth / no growth) (Salmonella sp. [8]; contact time 120 min): -
- Bactericide action (growth / no growth) (B. subtilis; contact time 3 min): -
- Bactericide action (growth / no growth) (B. subtilis; contact time 5 min): -
- Bactericide action (growth / no growth) (B. subtilis; contact time 10 min): -
- Bactericide action (growth / no growth) (B. subtilis; contact time 30 min): -
- Bactericide action (growth / no growth) (B. subtilis; contact time 60 min): -
- Bactericide action (growth / no growth) (B. subtilis; contact time 120 min): -
- contact time for total bactericide activity (E. coli): ≤ 3 min
- Bactericide action (growth / no growth) (E. coli; contact time 3 min): -
- Bactericide action (growth / no growth) (E. coli; contact time 5 min): -
- Bactericide action (growth / no growth) (E. coli; contact time 10 min): -
- Bactericide action (growth / no growth) (E. coli; contact time 30 min): -
- Bactericide action (growth / no growth) (E. coli; contact time 60 min): -
- Bactericide action (growth / no growth) (E. coli; contact time 120 min): -
- contact time for total bactericide activity (Indole-positive Proteus [9]): 60 to 120 min
- Bactericide action (growth / no growth) (Indole-positive Proteus [9]; contact time 3 min): +
- Bactericide action (growth / no growth) (Indole-positive Proteus [9]; contact time 5 min): +
- Bactericide action (growth / no growth) (Indole-positive Proteus [9]; contact time 10 min): -
- Bactericide action (growth / no growth) (Indole-positive Proteus [9]; contact time 30 min): -
- Bactericide action (growth / no growth) (Indole-positive Proteus [9]; contact time 60 min): -
- Bactericide action (growth / no growth) (Indole-positive Proteus [9]; contact time 120 min): -
- Bactericide action (growth / no growth) (Serratia marcescens [10]; contact time 3 min): -
- Bactericide action (growth / no growth) (Serratia marcescens [10]; contact time 5 min): -
- Bactericide action (growth / no growth) (Serratia marcescens [10]; contact time 10 min): -
- Bactericide action (growth / no growth) (Serratia marcescens [10]; contact time 30 min): -
- Bactericide action (growth / no growth) (Serratia marcescens [10]; contact time 60 min): -
- Bactericide action (growth / no growth) (Serratia marcescens [10]; contact time 120 min): -
- contact time for total bactericide activity (Pseudomonas aeruginosa [11]): 60 to 120 min
- Bactericide action (growth / no growth) (Pseudomonas aeruginosa [11]; contact time 3 min): +
- Bactericide action (growth / no growth) (Pseudomonas aeruginosa [11]; contact time 5 min): +
- Bactericide action (growth / no growth) (Pseudomonas aeruginosa [11]; contact time 10 min): +
- Bactericide action (growth / no growth) (Pseudomonas aeruginosa [11]; contact time 30 min): +
- Bactericide action (growth / no growth) (Pseudomonas aeruginosa [11]; contact time 60 min): +
- Bactericide action (growth / no growth) (Pseudomonas aeruginosa [11]; contact time 120 min): -
